Test results reported in patent US9504652B2 (Druggability Technologies IP Holdco (Jersey) Ltd., priority 2010, dated 2016).
Like-named read-outs stand apart in the source and are kept apart here.

How the values were obtained:
[1] = Comparative dissolution test (wettability and redispersibility) in distillate water; format: physicochemical; conditions: 4.0 mg Aprepitant in 8.0 mL distillate water, stirred 10 minutes
human liver microsomes = conditions: cited from earlier work
PAMPA permeability = format: in vitro ADME; conditions: for Papp: PAMPA
Source text: The sample containing the reference compound was a suspension of crystals visible by the naked eye, while the other two samples were opalescent colloid solutions. The receiver compartment was phosphate buffered saline with 1% sodium lauryl sulphate and 5% DMSO.

[2] = cited from earlier work
[3] = over 72 hours, single oral 300 mg dose of [14C]-Aprepitant; cited from earlier work

wettability and redispersibility / dissolution [1]: did not wet and did not dissolve | ratio of PAMPA permeability for FeSSIF and FaSSIF (PAMPA permeability; FeSSIF/FaSSIF): 10.7 | Papp (PAMPA permeability; redispersed in FaSSIF): 0.044 ×10⁻⁶ cm/s | Papp (PAMPA permeability; redispersed in FeSSIF): 0.471 ×10⁻⁶ cm/s
Structure (SMILES): C[C@@H](O[C@H]1OCCN(Cc2n[nH]c(=O)[nH]2)[C@H]1c1ccc(F)cc1)c1cc(C(F)(F)F)cc(C(F)(F)F)c1 [Aprepitant, 5-[[(2R,3S)-2-[(1R)-1-[3,5-bis(trifluoromethyl)phenyl]ethoxy]-3-(4-fluorophenyl)-4-morpholinyl]methyl]-1,2-dihydro-3H-1,2,4-triazol-3-one]
CYP enzymes with no metabolism detected (human liver microsomes): No metabolism by CYP2D6, CYP2C9, or CYP2E1 was detected | metabolizing CYP enzymes (human liver microsomes): metabolized primarily by CYP3A4 with minor metabolism by CYP1A2 and CYP2C19 | solubility ([2]; acetonitrile): slightly soluble | solubility ([2]; ethanol): sparingly soluble | solubility ([2]; isopropyl acetate): sparingly soluble | solubility ([2]; water): practically insoluble | share of the radioactivity in plasma accounted for by Aprepitant [3]: approximately 24%
